This is an account of results in article PMC11995724, “Antibiotic target discovery by integrated phenotypic and activity-based profiling of electrophilic fragments” (Cell chemical biology, 2025).

This data set in a line: in vitro. The settings on record: human, hek293t cells.
Usually viability stands for a read-out of living cells in per cent, often relative to untreated cells. In the case of `O=C(CCl)NCc1ccccc1OC(F)(F)F` [4-L21, 2-chloro-N-{[2-(trifluoromethoxy)phenyl]methyl}acetamide], the viability at 48 h, 25 µM was 0.623%.
`O=C(CCl)Nc1nc(-c2cc(F)ccc2F)cs1` [4-L22, 2-chloro-N-[4-(2,5-difluorophenyl)-1,3-thiazol-2-yl]acetamide]: the viability at 48 h, 25 µM is 0.065%.
As to `CCCc1cc(NC(=O)CCl)n(-c2ccccc2)n1` [4-M03, 2-chloro-N-(1-phenyl-3-propyl-1H-pyrazol-5-yl)acetamide], the viability at 48 h, 25 µM came out at 0.483%.
On to `CCc1cc(SC#N)cc(C)c1NC(=O)CCl` [4-M04, 2-chloro-N-[4-(cyanosulfanyl)-2-ethyl-6-methylphenyl]acetamide], for which the viability at 48 h, 25 µM was 17.6%.
For `O=C(CCl)Nc1ccc(F)c(F)c1F` [4-M05, 2-chloro-N-(2,3,4-trifluorophenyl)acetamide], the viability at 48 h, 25 µM came to 0.759%.
As to `CCN(CC)S(=O)(=O)c1cccc(NC(=O)CCl)c1` [4-M07, 2-chloro-N-[3-(diethylsulfamoyl)phenyl]acetamide], the viability at 48 h, 25 µM came out at 1.11%.
Consider `COc1ccc(NC(C)=O)cc1NC(=O)C(C)Cl` (stereo not drawn) [4-M08, 2-chloro-N-(5-acetamido-2-methoxyphenyl)propanamide], for which the viability at 48 h, 25 µM came to 84.8%.
Then `COc1cc(NC(=O)CCl)c(C)cc1[N+](=O)[O-]` [4-M09, 2-chloro-N-(5-methoxy-2-methyl-4-nitrophenyl)acetamide], with 1.27%; and `CC(Cl)C(=O)Nc1cccc2ncccc12` (stereo not drawn) [4-M10, 2-chloro-N-(quinolin-5-yl)propanamide], with 97.4%.
Turning to `CSc1ccccc1NC(=O)C(C)Cl` (stereo not drawn) [4-M12, 2-chloro-N-[2-(methylsulfanyl)phenyl]propanamide], the viability at 48 h, 25 µM is 95.2%.
To `Cc1ccc(NC(=O)CCl)cc1[N+](=O)[O-]` [4-M13, 2-chloro-N-(4-methyl-3-nitrophenyl)acetamide] belongs 59.2%; to `Cc1ccc(C)c(-c2cc(NC(=O)CCl)n(-c3ccccc3)n2)c1` [4-M14, 2-chloro-N-[3-(2,5-dimethylphenyl)-1-phenyl-1H-pyrazol-5-yl]acetamide], 0.149%; to `Cc1ccc(N(CCC#N)C(=O)CCl)cc1` [4-M15, 2-chloro-N-(2-cyanoethyl)-N-(4-methylphenyl)acetamide], 1.24%.
To `O=C(CCl)Nc1ccccc1F` [4-M16, 2-chloro-N-(2-fluorophenyl)acetamide] belongs 0.723%; to `COc1cc(NC(=O)CCl)c(Cl)cc1C(=O)O` [4-M17, 5-chloro-4-(2-chloroacetamido)-2-methoxybenzoic acid], 1.05%.
Turning to `O=C(CCl)N1c2ccccc2SCC1c1ccccc1` (stereo not drawn) [4-M18, 2-chloro-1-(3-phenyl-3,4-dihydro-2H-1,4-benzothiazin-4-yl)ethan-1-one], the viability at 48 h, 25 µM is -0.0405%.
For `COc1ccc(OC)c(C(C)NC(=O)CCl)c1` (stereo not drawn) [4-M19, 2-chloro-N-[1-(2,5-dimethoxyphenyl)ethyl]acetamide], the viability at 48 h, 25 µM came to 1.13%.
Regarding `COc1ccc(C2=NN(C(=O)CCl)C(c3ccc(F)cc3)C2)cc1` (stereo not drawn) [4-M20, 2-chloro-1-[5-(4-fluorophenyl)-3-(4-methoxyphenyl)-4,5-dihydro-1H-pyrazol-1-yl]ethan-1-one], the viability at 48 h, 25 µM worked out at 0.00411%.
For the compound `Cc1c(C#N)c(NC(=O)CCl)n(Cc2ccccc2)c1C` [4-M21, N-(1-benzyl-3-cyano-4,5-dimethyl-1H-pyrrol-2-yl)-2-chloroacetamide], the viability at 48 h, 25 µM was -0.247%.
`O=C(CCl)N1N=C(C=Cc2ccco2)CC1c1ccco1` (stereo not drawn) [4-M22, 2-chloro-1-[5-(furan-2-yl)-3-[2-(furan-2-yl)ethenyl]-4,5-dihydro-1H-pyrazol-1-yl]ethan-1-one]: the viability at 48 h, 25 µM was -0.145%.
With `N#Cc1ccc(NC(=O)CCl)cc1Cl` [4-N03, 2-chloro-N-(3-chloro-4-cyanophenyl)acetamide], the viability at 48 h, 25 µM came out at 0.427%.
With `O=C(CCl)NCCCc1ccccc1` [4-N04, 2-chloro-N-(3-phenylpropyl)acetamide], the viability at 48 h, 25 µM turned out to be 50.6%.
Take `CC(Cl)C(=O)N(C)CC(=O)Nc1ccccc1C(F)(F)F` (stereo not drawn) [4-N05, 2-chloro-N-methyl-N-({[2-(trifluoromethyl)phenyl]carbamoyl}methyl)propanamide]: the viability at 48 h, 25 µM came to 79.8%.
`COc1ccc(-c2csc(NC(=O)CCl)n2)cc1` [4-N06, 2-chloro-N-[4-(4-methoxyphenyl)-1,3-thiazol-2-yl]acetamide]: the viability at 48 h, 25 µM came out at 0.915%.
For the compound `O=C(CCl)N1c2ccccc2Sc2ccc(Cl)cc21` [4-N07, 2-chloro-1-(2-chloro-10H-phenothiazin-10-yl)ethan-1-one], the viability at 48 h, 25 µM worked out at 122%.
Turning to `O=C(CCl)Nc1ccc(C(F)(F)F)cc1[N+](=O)[O-]` [4-N08, 2-chloro-N-[2-nitro-4-(trifluoromethyl)phenyl]acetamide], the viability at 48 h, 25 µM came out at 87.1%.
On to `O=C(CCl)Nc1ccccc1OC(F)F` [4-N09, 2-chloro-N-[2-(difluoromethoxy)phenyl]acetamide], for which the viability at 48 h, 25 µM came to 0.7%.
With `O=C(CCl)Nc1ccc(-c2ccccc2)cc1` [4-N10, N-{[1,1'-biphenyl]-4-yl}-2-chloroacetamide], the viability at 48 h, 25 µM was 0.814%.
Then `O=C(CCl)NCCc1ccc2c(c1)OCCO2` [4-N11, 2-chloro-N-[2-(2,3-dihydro-1,4-benzodioxin-6-yl)ethyl]acetamide], with 18.9%; and `COc1cc(NC(=O)CCl)cc(OC)c1OC` [4-N12, 2-chloro-N-(3,4,5-trimethoxyphenyl)acetamide], with 1.27%; and `CC(Cl)C(=O)Nc1cc(Cl)c(Cl)cc1Cl` (stereo not drawn) [4-N13, 2-chloro-N-(2,4,5-trichlorophenyl)propanamide], with 71.7%.
With `CC(C)C(NC(=O)CCl)c1ccc2c(c1)OCCCO2` (stereo not drawn) [4-N14, 2-chloro-N-[1-(3,4-dihydro-2H-1,5-benzodioxepin-7-yl)-2-methylpropyl]acetamide], the viability at 48 h, 25 µM was found to be 28.5%.
To `CC(Cl)C(=O)Nc1cc(C(F)(F)F)ccc1Cl` (stereo not drawn) [4-N15, 2-chloro-N-[2-chloro-5-(trifluoromethyl)phenyl]propanamide] belongs 83.3%; to `O=C(CCl)Nc1ccc(S(=O)(=O)C(F)F)cc1` [4-N16, 2-chloro-N-(4-difluoromethanesulfonylphenyl)acetamide], 0.598%.
To `Cc1ccc(C(=O)c2ccccc2NC(=O)CCl)cc1` [4-N17, 2-chloro-N-[2-(4-methylbenzoyl)phenyl]acetamide] belongs 2.4%; to `Cc1c(C#N)c(NC(=O)CCl)n(C2CCCCC2)c1C` [4-N18, 2-chloro-N-(3-cyano-1-cyclohexyl-4,5-dimethyl-1H-pyrrol-2-yl)acetamide], 0.0875%; to `COc1ccc(C2=NN(C(=O)CCl)C(c3ccco3)C2)cc1` (stereo not drawn) [4-N19, 2-chloro-1-[5-(furan-2-yl)-3-(4-methoxyphenyl)-4,5-dihydro-1H-pyrazol-1-yl]ethan-1-one], 0.0172%.
Then `CC(Cl)C(=O)N1CC(=O)Nc2cc(C(F)(F)F)ccc21` (stereo not drawn) [4-N20, 4-(2-chloropropanoyl)-7-(trifluoromethyl)-1,2,3,4-tetrahydroquinoxalin-2-one], with 82.1%; and `O=C(CCl)NC1CCCN(c2cc(N3CCOCC3)ncn2)C1` (stereo not drawn) [4-N21, 2-chloro-N-{1-[6-(morpholin-4-yl)pyrimidin-4-yl]piperidin-3-yl}acetamide], with 4.92%.
Turning to `O=C(CCl)Nc1ccccc1Cc1ccccc1` [4-N22, N-(2-benzylphenyl)-2-chloroacetamide], the viability at 48 h, 25 µM is 0.906%.
With `Cc1ccc(F)cc1NC(=O)CCl` [4-O03, 2-chloro-N-(5-fluoro-2-methylphenyl)acetamide], the viability at 48 h, 25 µM was found to be 0.509%.
To `COc1ccc(S(=O)(=O)N2CCOCC2)cc1NC(=O)CCl` [4-O04, 2-chloro-N-[2-methoxy-5-(morpholine-4-sulfonyl)phenyl]acetamide] belongs 1.63%; to `O=C(CCl)Nc1cc2c(cc1[N+](=O)[O-])OCCCO2` [4-O05, 2-chloro-N-(8-nitro-3,4-dihydro-2H-1,5-benzodioxepin-7-yl)acetamide], 103%; to `CC(Cl)C(=O)NC1CCCCC1` (stereo not drawn) [4-O06, 2-chloro-N-cyclohexylpropanamide], 115%.
Then `COc1cc([N+](=O)[O-])ccc1NC(=O)CCl` [4-O07, 2-chloro-N-(2-methoxy-4-nitrophenyl)acetamide], with 1.19%; and `CC(Cl)C(=O)Nc1ccc(F)c(F)c1F` (stereo not drawn) [4-O08, 2-chloro-N-(2,3,4-trifluorophenyl)propanamide], with 88.8%.
With `N#Cc1cc([N+](=O)[O-])ccc1NC(=O)CCl` [4-O09, 2-chloro-N-(2-cyano-4-nitrophenyl)acetamide], the viability at 48 h, 25 µM came to 1.1%.
As for `CCC(C)c1ccccc1NC(=O)C(C)Cl` (stereo not drawn) [4-O10, N-[2-(butan-2-yl)phenyl]-2-chloropropanamide], the viability at 48 h, 25 µM was determined as 85.1%.
On to `Cc1nn(Cc2ccccc2)c(C)c1CNC(=O)CCl` [4-O11, N-[(1-benzyl-3,5-dimethyl-1H-pyrazol-4-yl)methyl]-2-chloroacetamide], for which the viability at 48 h, 25 µM is 1.47%.
With `O=C(CCl)NCCc1ccc(Cl)cc1` [4-O12, 2-chloro-N-[2-(4-chlorophenyl)ethyl]acetamide], the viability at 48 h, 25 µM is 7.11%.
Turning to `O=C(CCl)Nc1ccccc1Sc1ccc(Cl)cc1` [4-O13, 2-chloro-N-{2-[(4-chlorophenyl)sulfanyl]phenyl}acetamide], the viability at 48 h, 25 µM is 0.318%.
Turning to `CC(C)c1ccc(C(NC(=O)CCl)C(C)C)cc1` (stereo not drawn) [4-O14, 2-chloro-N-{2-methyl-1-[4-(propan-2-yl)phenyl]propyl}acetamide], the viability at 48 h, 25 µM is 0.576%.
To `CCOC(=O)c1c(NC(=O)CCl)sc(C)c1C` [4-O15, ethyl 2-(2-chloroacetamido)-4,5-dimethylthiophene-3-carboxylate] belongs 57%; to `O=C(CCl)Nc1c(Cl)c(Cl)cc(Cl)c1Cl` [4-O16, 2-chloro-N-(2,3,5,6-tetrachlorophenyl)acetamide], 1.16%.
